Reference: the supplement of paper PMC10307832

Legend:
[1] = compound: CC(O)(CS(=O)(=O)c1ccc(F)cc1)C(=O)Nc1ccc(C#N)c(C(F)(F)F)c1 [Bicalutamide] + Cc1cc(Nc2cc(N3CCN(C)CC3)nc(Sc3ccc(NC(=O)C4CC4)cc3)n2)n[nH]1 [Tozasertib] (partner 0.1 µM); test: relative viability (nuclei count vs DMSO), 5 days (fraction); higher = more cells survive
Summary of the method: (§1)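 Relative viability equals treated-well nuclei counts divided by vehicle-well nuclei counts. Counts came from 4× images of lung cancer cell lines grown in 1536-well plates for 5 days after pin-tool dosing on the day after seeding. Dosing used one drug alone or a fixed anchor-drug dose plus five library-drug doses (not always all listed) in √10 steps, and values are medians of duplicate plates.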

[2] = compound: C(C(=O)C(=O)O)Br [Bromopyruvate] + COc1cc2c(Oc3ccc(NC(=O)C4(C(=O)Nc5ccc(F)cc5)CC4)cc3F)ccnc2cc1OCCCN1CCOCC1 [Foretinib] (partner 0.25 µM); test: as above
Summary of the method: as §1

Cell Line | relative viability ([1]; first compound 0.08 µM) | relative viability ([1]; first compound 0.253 µM) | relative viability ([1]; first compound 0.8 µM) | relative viability ([1]; first compound 2.53 µM) | relative viability ([2]; first compound 1 µM) | relative viability ([2]; first compound 3.162 µM) | relative viability ([2]; first compound 10 µM) | relative viability ([2]; first compound 31.62 µM) | relative viability ([2]; first compound 100 µM)
NCI-H2085 | 0.913 | 0.81 | 0.805 | 0.804 | 0.865 | 1.06 | 0.964 | 0.779 | 0.465
COR-L 105 | 0.391 | 0.348 | 0.408 | 0.387 | 0.924 | 1.18 | 0.995 | 1.08 | 0.616
SK-LU-1 | 0.341 | 0.291 | 0.295 | 0.319 | 0.846 | 0.867 | 0.954 | 0.671 | 0.799
LXF-289 | 0.206 | 0.182 | 0.198 | 0.157 | 1.02 | 0.997 | 0.965 | 1.01 | 1.04
PC-3 [JPC-3] | 0.926 | 0.903 | 0.952 | 0.893 | 1.16 | 1.03 | 1.12 | 0.976 | 1.03
NCI-H661 | 0.367 | 0.355 | 0.362 | 0.359 | 1.02 | 1.02 | 1.05 | 1.02 | 0.994
NCI-H1666 | 0.6 | 0.562 | 0.625 | 0.597 | 0.994 | 1.05 | 1.03 | 1 | 0.936
NCI-H2087 | 0.234 | 0.226 | 0.262 | 0.219 | 1.13 | 1.17 | 0.97 | 1.12 | 0.595
NCI-H1734 | 0.249 | 0.244 | 0.268 | 0.279 | 0.888 | 0.923 | 1.03 | 0.807 | 0.824
NCI-H2228 | 0.208 | 0.349 | 0.202 | 0.253 | 0.798 | 0.82 | 0.941 | 0.754 | 0.794
EMC-BAC-2 | 0.346 | 0.285 | 0.289 | 0.249 | 0.964 | 0.979 | 1.06 | 0.933 | 1.1
NCI-H2009 | 0.777 | 0.664 | 0.723 | 0.649 | 1.22 | 1.25 | 1.19 | 1.2 | 0.883
NCI-H596 | 0.897 | 0.82 | 0.998 | 0.989 | 0.86 | 0.946 | 1.02 | 0.685 | 0.232
NCI-H650 | 0.792 | 0.747 | 0.885 | 0.653 | 1.04 | 1.03 | 1.16 | 1.01 | 0.948
SW 1573 | 0.205 |  | 0.231 | 0.135 | 0.741 | 0.845 | 0.982 | 0.996 | 0.868
ChaGo-K-1 | 0.219 | 0.238 | 0.212 | 0.292 | 0.898 | 0.937 | 1.15 | 1.02 | 0.998

Cell Line | relative viability ([1]; first compound 0.08 µM) | relative viability ([1]; first compound 0.253 µM) | relative viability ([1]; first compound 0.8 µM) | relative viability ([1]; first compound 2.53 µM) | relative viability ([2]; first compound 1 µM) | relative viability ([2]; first compound 3.162 µM) | relative viability ([2]; first compound 10 µM) | relative viability ([2]; first compound 31.62 µM) | relative viability ([2]; first compound 100 µM)
NCI-H522 | 0.552 | 0.627 | 0.597 | 0.543 |  |  |  |  | 
NCI-H1299 |  |  |  |  | 1.16 | 1.13 | 1.16 | 1.14 | 1.09
NCI-H1650 | 0.501 | 0.395 | 0.341 | 0.388 | 1.16 | 1.25 | 1.12 | 1.42 | 0.747
NCI-H2023 | 0.448 | 0.376 | 0.306 | 0.249 | 0.716 | 0.776 | 0.813 | 0.985 | 0.806
LOU-NH91 | 0.696 | 0.516 | 0.798 | 0.662 | 0.945 | 0.903 | 0.999 | 0.92 | 0.984
NCI-H3122 | 0.422 | 0.408 | 0.445 | 0.44 | 0.985 | 1.04 | 1.01 | 0.915 | 0.917
NCI-H1648 |  | 0.496 | 0.602 | 0.358 |  |  |  |  | 
LCLC-97TM1 | 0.212 | 0.186 | 0.296 | 0.231 | 0.843 | 0.916 | 0.917 | 0.965 | 1.02
NCI-H647 | 0.3 | 0.264 | 0.293 | 0.191 | 1.26 | 1.2 | 1.31 | 1.21 | 1.06
NCI-H838 | 0.274 | 0.279 | 0.289 | 0.23 | 1.03 | 1.08 | 1.07 | 1.05 | 1.03
H3255 | 0.743 | 0.439 |  | 0.604 | 0.902 | 0.806 | 0.93 | 0.938 | 0.922
SK-MES-1 | 1.08 | 0.853 | 0.867 | 0.66 | 0.964 | 0.962 | 0.938 | 0.75 | 1.17
NCI-H1437 | 0.399 | 0.423 | 0.448 | 0.403 | 1.26 | 1.28 | 1.27 | 1.28 | 1.25
A549 |  |  |  |  | 0.949 | 0.935 | 1.07 | 0.989 | 1.06
NCI-H1563 |  |  |  |  | 0.869 | 1.11 | 0.946 | 0.879 | 0.901
